“And” between values parts separate entries of the source, which are not always exact repeats. Identical values can stand only once. The source made the active and inactive calls.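 The calls were made as follows: active = signal-decreasing dose-response curve whose fitted half-maximal concentration is at or below twice the highest valid tested dose; inconclusive = flat fit at 30 to 70% signal loss, or poor fit; inactive = the rest.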

This experiment is described as follows: cell viability loss after compound exposure – 24 h, luminescence, cherry-picked samples, cytotoxicity control for PDI inhibitor project, dose response (AID 624285). To be noted: NIH3T3/HeLa viability, CellTiter-Glo ATP luminescence, 24 h; at 35 µM (top of the series).
With `COc1ccccc1NS(=O)(=O)c1ccc(C)c(C(=O)NCC2(N(C)C)CCCCC2)c1`, the activity change, negative = cytotoxicity is -11.3% (inactive).

With `C[C@@H]1O[C@@H](Oc2c(-c3cc(O)c(O)c(O)c3)oc3cc(O)cc(O)c3c2=O)[C@H](O)[C@H](O)[C@H]1O`, the activity change, negative = cytotoxicity was -5.81% (inactive).

Consider `Cn1nnnc1SCC(=O)Nc1cc(C(F)(F)F)ccc1N1CCOCC1`, for which the activity change, negative = cytotoxicity is -9.83% (inactive).

Consider `CCCNC(=O)Cn1c(-c2ccc(F)cc2)cc(C(=O)OCC)c1C`, for which the activity change, negative = cytotoxicity is -18.9% (inactive).

As to `O=C(C[C@H]1C[C@H](C(=O)N2CCCCC2)[C@@]2(CCc3ccccc3)c3[nH]c4cc(-c5ccco5)ccc4c3CCN2C1=O)NCCC1=CCCCC1`, the activity change, negative = cytotoxicity is -13% (inactive).

Consider `CCOC(=O)C1(CC2CC2)CCN(Cc2cc(Cl)c(O)c(OC)c2)CC1`, for which the activity change, negative = cytotoxicity is -20.4% (inactive).

With `C[C@@H](C(=O)NCc1ccccc1)N1C(=O)C2CC=CCC2C1=O` (stereo not given in full), the activity change, negative = cytotoxicity is -8.35% (inactive).

As to `CC(=O)NC(Cc1c[nH]c2ccccc12)C(=O)OCC(=O)N1CCN(S(=O)(=O)c2ccc(Cl)cc2)CC1` (stereo not given), the activity change, negative = cytotoxicity was -10.5% (inactive).

On to `CC1(C(=O)Nc2ccc3c(c2)OCCO3)CCN1C(=O)C1(c2ccc(Cl)cc2)CC1` (stereo not given), for which the activity change, negative = cytotoxicity was -11.6% (inactive).

Regarding `Cc1noc(C)c1S(=O)(=O)Nc1ccc2c(c1)CC(=O)N([C@H](C)CO)C[C@H](C)[C@H](CN(C)S(=O)(=O)c1ccccc1)O2`, the activity change, negative = cytotoxicity was 3.77% (inactive).

For the compound `CC(NCC(O)COCc1ccc(Cl)cc1)c1ccccc1` (stereo not given), the activity change, negative = cytotoxicity is -15.3% (inactive).

For the compound `O=C(c1c(O)cc(O)cc1O)C1c2c(cc(O)c3c2O[C@H](c2ccc(O)cc2)[C@@H](O)C3)OC1c1ccc(O)cc1` (stereo not given in full), the activity change, negative = cytotoxicity was -5.6% (inactive).

Regarding `Cc1cccc(C(=O)OCC(=O)N2CCCCCC2)c1O`, the activity change, negative = cytotoxicity is -10.1% (inactive).

With `CCOc1ncccc1C(=O)OCC(=O)Nc1ccc(C(C)C)cc1`, the activity change, negative = cytotoxicity is -7.86% (inactive).

Regarding `Cc1cc(NC(=O)CSc2[nH]c(=O)cc(C(F)(F)F)c2C#N)no1`, the activity change, negative = cytotoxicity was -3.53% (inactive).

On to `CC(=O)Nc1cccc(NC(=O)CCc2ccccc2)c1`, for which the activity change, negative = cytotoxicity was -12% (inactive).

As to `COc1cc(C(C)=O)ccc1OCC(=O)NCCCn1nc(C)cc1C`, the activity change, negative = cytotoxicity was -1.82% (inactive).

Consider `C[C@@H]1CN([C@@H](C)CO)C(=O)c2cccc(NS(C)(=O)=O)c2O[C@@H]1CN(C)Cc1ccc(Oc2ccccc2)cc1`, for which the activity change, negative = cytotoxicity was -5.95% (inactive).

With `COc1cccc(NC(=O)CN(C)C(=O)/C=C/c2cc(OC)ccc2OC)c1`, the activity change, negative = cytotoxicity was -4.31% (inactive).

Regarding `O=C1NC(Cc2ccc(O)cc2)c2nc3ccccc3c(=O)n2-c2ncccc21` (stereo not given), the activity change, negative = cytotoxicity is -7.17% (inactive).

Consider `O=C(NCc1ccncc1)Nc1cc(Cl)ccc1Cl`, for which the activity change, negative = cytotoxicity is -6.87% (inactive).

As to `CCC(=O)Nc1ccc(-c2cc3ccccc3oc2=O)cc1`, the activity change, negative = cytotoxicity was -7.54% (inactive).

On to `O=C(CSc1n[nH]c(-c2ccccc2)n1)Nc1ccccc1O`, for which the activity change, negative = cytotoxicity is -6.55% (inactive).

Consider `O=C(/C=C/c1ccc(NC(=O)c2ccccc2-c2ccccc2C(=O)O)cc1)c1ccccc1`, for which the activity change, negative = cytotoxicity was -8.34% (inactive).

As for `O=C(c1ccc(NS(=O)(=O)c2ccccc2)cc1)N1CCOCC1`, the activity change, negative = cytotoxicity was -8.07% (inactive).

Consider `CCN1CC2(COC(=O)c3ccccc3N)CCC(OC)C34C5CC6C(OC)CC(O)(C5C6OC)C(O)(C(OC)C23)C14` (stereo not given), for which the activity change, negative = cytotoxicity was -11.8% (inactive).

Consider `CC(C)N1CCCC(C)(C(=O)Nc2nc3ccccc3n2C)C1` (stereo not given), for which the activity change, negative = cytotoxicity is -8.91% (inactive).

For the compound `C[C@@H]1O[C@@H](OC[C@@H]2O[C@H](Oc3c(-c4ccc(O)cc4)oc4cc(O)cc(O)c4c3=O)[C@@H](O)[C@H](O)[C@H]2O)[C@H](O)[C@H](O)[C@H]1O`, the activity change, negative = cytotoxicity was 0.405% (inactive).

With `O=C(O)C1C(c2ccccc2)C(C(=O)Oc2ccc(O)cc2)C1c1ccccc1` (stereo not given), the activity change, negative = cytotoxicity was -8.75% (inactive).

As for `Cc1noc(C)c1C(=O)OCC(=O)NCCc1ccc(Cl)cc1`, the activity change, negative = cytotoxicity is -14.2% (inactive).

`CC[C@]12c3[nH]c4cc(-c5ccco5)ccc4c3CCN1C(=O)[C@@H](CC(=O)NCCCOC)C[C@@H]2C(=O)N1CCN(C(=O)C2CC2)CC1`: the activity change, negative = cytotoxicity was -8.63% (inactive).

For `O=C1CC(C(=O)N2CCc3ccccc32)CN1c1ccc(F)cc1` (stereo not given), the activity change, negative = cytotoxicity is -10.7% (inactive).

Regarding `N#Cc1ccccc1CSc1nnc(Cc2ccccc2)o1`, the activity change, negative = cytotoxicity was -7.32% (inactive).

`Cc1noc(C)c1S(=O)(=O)Nc1ccc2c(c1)CC(=O)N([C@H](C)CO)C[C@@H](C)[C@@H](CN(C)S(=O)(=O)c1ccc(F)cc1)O2`: the activity change, negative = cytotoxicity was -0.682% (inactive).

As to `CCOC(=O)c1c(CN(CC)CC)n(C)c2cc(Br)c(O)cc12`, the activity change, negative = cytotoxicity was -10.4% (inactive).

`CC(C)CCOc1ccc(C2(C)NC(=O)N(CN3CCOCC3)C2=O)cc1` (stereo not given): the activity change, negative = cytotoxicity was -15.3% (inactive).

Turning to `CCOC(=O)c1c(CN2CCN(CCO)CC2)n(C)c2cc(Br)c(OC)cc12`, the activity change, negative = cytotoxicity is -17.2% (inactive).

Turning to `Cc1cc(C)c(C)c(S(=O)(=O)N2CCC(C(=O)N(C)Cc3nc4ccccc4c(=O)[nH]3)CC2)c1C`, the activity change, negative = cytotoxicity was -5.52% (inactive).

As to `O=C(CCc1ccc(O)cc1)NN=Cc1cc(Br)ccc1O`, the activity change, negative = cytotoxicity is -12.9% (inactive).

Take `O=C(NN1CC(C(=O)OCc2ccccc2F)CC1=O)c1ccccc1` (stereo not given): the activity change, negative = cytotoxicity was -2.89% (inactive).

As for `COc1ccc(CN(C)C[C@@H]2Oc3c(NS(C)(=O)=O)cccc3C(=O)N([C@H](C)CO)C[C@H]2C)cc1`, the activity change, negative = cytotoxicity was 2.2% (inactive).

As to `CCCCNC(=O)Nc1ccon1`, the activity change, negative = cytotoxicity is -6.29% (inactive).

Turning to `Cc1ccc(O)c(NC(=O)CSc2n[nH]c(-c3ccccc3)n2)c1`, the activity change, negative = cytotoxicity was -16.4% (inactive).

Take `CC1(C(=O)NS(=O)(=O)c2ccccc2Cl)CCN1C(=O)c1ccccc1CCc1ccccc1` (stereo not given): the activity change, negative = cytotoxicity is -8.92% (inactive).

Regarding `CC1CCCN(c2cc3c(cc2[N+](=O)[O-])C(=O)N(c2ccccc2)C3=O)C1` (stereo not given), the activity change, negative = cytotoxicity was 0.75% (inactive).

With `C[C@H]1CN([C@@H](C)CO)C(=O)c2cc(NC(=O)Cc3cn(C)c4ccccc34)ccc2O[C@H]1CN(C)S(=O)(=O)c1ccc(F)cc1`, the activity change, negative = cytotoxicity is -5.48% (inactive).

Regarding `COc1ccccc1N1CCN(C(=O)C(=O)N/N=C/c2cccc(O)c2)CC1`, the activity change, negative = cytotoxicity is -8.29% (inactive).

In the case of `Cc1ccc(C)c(NS(=O)(=O)c2c(C)nn(C)c2C)c1`, the activity change, negative = cytotoxicity is -1.82% (inactive).

Turning to `C[C@@H]1CN([C@H](C)CO)C(=O)Cc2cc(NC(=O)Nc3ccccc3)ccc2O[C@@H]1CN(C)Cc1ccccc1`, the activity change, negative = cytotoxicity is -3.74% (inactive).

`COCc1[nH][nH]c(=O)c1C=Nc1ccc(F)cc1F`: the activity change, negative = cytotoxicity is -11.4% (inactive).

With `COc1ccc(N2CCN(CC(=O)c3ccc(O)c(C)c3O)CC2)cc1`, the activity change, negative = cytotoxicity is -3.44% (inactive).

As to `CCOC(=O)C1(Cc2ccc(O)cc2)NC(c2ccccc2F)C2C(=O)N(C)C(=O)C21` (stereo not given), the activity change, negative = cytotoxicity was -15.5% (inactive).

With `O=C(Cc1ccccc1)Nc1cccc(C(=O)N/N=C/c2ccco2)c1`, the activity change, negative = cytotoxicity is -4.58% (inactive).

`C[C@]12CC[C@@H]3c4ccc(O[C@@H]5O[C@H](C(=O)O)[C@@H](O)[C@H](O)[C@H]5O)cc4CC[C@H]3[C@@H]1C[C@@H](O)[C@@H]2O`: the activity change, negative = cytotoxicity was -6.13% (inactive).

Regarding `COc1ccc(C2c3ccc(O)cc3Oc3ncn(Cc4ccco4)c(=N)c32)cc1OC` (stereo not given), the activity change, negative = cytotoxicity is -14.4% (inactive).

Take `CC(C)Oc1cccc(C(=O)NC(=S)Nc2cccc(NC(=O)c3ccccc3Cl)c2)c1`: the activity change, negative = cytotoxicity is -18.2% (inactive).

On to `COc1ccc(S(=O)(=O)NCC(c2ccc(F)cc2)N2CCOCC2)cc1Br` (stereo not given), for which the activity change, negative = cytotoxicity is -10.1% (inactive).

As to `CC(O)(c1cccnc1)c1nc(-c2cc(F)cc(F)c2)cs1` (stereo not given), the activity change, negative = cytotoxicity is -6.67% (inactive).

As to `CCOc1ccc2nc(SCC(=O)c3ccc(Cl)s3)sc2c1`, the activity change, negative = cytotoxicity is -9.42% (inactive).

Consider `Cc1cccc(NC(=S)NCC23C=CC(O2)C2C(=O)N(c4ccc(Cl)cc4)C(=O)C23)c1` (stereo not given), for which the activity change, negative = cytotoxicity was -20.9% (inactive).

As for `C[C@@H]1CN([C@@H](C)CO)C(=O)c2cccc(NS(C)(=O)=O)c2O[C@H]1CN(C)Cc1ccc(Oc2ccccc2)cc1`, the activity change, negative = cytotoxicity is -11.5% (inactive) and -6.47% (inactive).

On to `S=C(NCCN1CCOCC1)Nc1ccc(Br)cc1`, for which the activity change, negative = cytotoxicity is -9.3% (inactive).

Consider `O=c1[nH]c(C2CCN(S(=O)(=O)c3ccc(C(F)(F)F)cc3)CC2)nc2c1nnn2Cc1ccc(F)cc1`, for which the activity change, negative = cytotoxicity was -22.8% (inactive).

For the compound `O=C(NC(=S)Nc1cccc(NC(=O)c2ccccc2)c1)c1cccc([N+](=O)[O-])c1`, the activity change, negative = cytotoxicity was -10.7% (inactive).

Regarding `COc1ccc(Cl)cc1NC(=O)COC(=O)C1CC1`, the activity change, negative = cytotoxicity is -9.32% (inactive).

For the compound `CC(NC(=O)COC(=O)Cc1ccccc1[N+](=O)[O-])c1ccccc1` (stereo not given), the activity change, negative = cytotoxicity is -0.036% (inactive).

As for `COCC(=O)N(C)C1(c2nnnn2CCOC(=O)Nc2ccc(Cl)cc2)CCCCC1`, the activity change, negative = cytotoxicity is -4.92% (inactive).

Consider `O=C(c1ccco1)N1CCN(Cc2cc(=O)oc3cc(O)ccc23)CC1`, for which the activity change, negative = cytotoxicity was -18% (inactive).

With `CN(C1=NC(=O)C(CC(=O)Nc2ccc(Br)cc2)S1)c1ccc(O)cc1` (stereo not given), the activity change, negative = cytotoxicity is -8.95% (inactive).

Consider `CCOC(=O)C(C)c1n[nH]c(=O)c2ccccc12` (stereo not given), for which the activity change, negative = cytotoxicity is -6.39% (inactive).

The values are drawn from PubChem BioAssay AID624285 (Broad Institute, 2012).
